Source: ChEMBL document CHEMBL4673352, “Discovery of AZD4573, a Potent and Selective Inhibitor of CDK9 That Enables Short Duration of Target Engagement for the Treatment of Hematological Malignancies” (J Med Chem, 2020)
The source made the active and inactive calls. The rule behind the calls is not given here.

Experiments:
[1] = Drug metabolism in human liver microsome assessed as (1S,3R)-3-acetamido-N-(5-chloro-4-(7-hydroxy-4,5,6,7-tetrahydropyrazolo[1,5-a]pyridin-3-yl)pyridin-2-yl)cyclohexanecarboxamide formation at 10 uM measured after 1 hr in presence of NADPH by LC-UV-MS analysis; assay type: ADME; details: microsomes
[2] = Drug metabolism in human hepatocytes assessed as 4-(4-(2-((1S,3R)-3-acetamidocyclohexanecarboxamido)-5-chloropyridin-4-yl)-1H-pyrazol-5-yl)butanoic acid metabolite formation; assay type: ADME, cell-based, Hepatocyte
[3] = Half-life in Beagle dog at 5.2 umol/kg, iv administered over 0.25 hrs formulated as solution in 5% DMSO; assay type: ADME, organism-based, Canis lupus familiaris; details: in vivo, dose 5.2 µmol/kg
NOMO-1 = test: Antitumor activity against human NOMO1 cells xenografted in CB17 SCID mouse assessed as cell death at 5 mg/kg, ip BID administered at 2 hrs dosing interval with 2 days on and 5 days off dosing schedule; assay type: functional, organism-based
[4] = Drug metabolism in human liver microsome assessed as (1S,3R)-3-acetamido-N-(5-chloro-4-(6-hydroxy-5,5-dimethyl-5,6-dihydro-4H-pyrrolo[1,2-b]pyrazol-3-yl)pyridin-2-yl)cyclohexanecarboxamide formation at 10 uM measured after 1 hr in presence of NADPH by LC-UV-MS analysis; assay type: ADME; details: microsomes
[5] = Half-life in cynomolgus monkey at 0.46 umol/kg, iv administered over 0.25 hrs formulated as solution in DMA/PEG400/Tween80; assay type: ADME, organism-based, Macaca fascicularis; details: in vivo, dose 0.46 µmol/kg
[6] = Half-life in mouse at 2.3 umol/kg, iv formulated as solution; assay type: ADME, organism-based; details: in vivo, dose 2.3 µmol/kg
[7] = biological target: Casein kinase I isoform gamma-1 (Homo sapiens, UniProt Q9HCP0); test: Inhibition of CK1gamma1 (unknown origin) in presence of 5 mM ATP
Casein kinase I isoform gamma-1, sequence (Q9HCP0 whole entry, canonical isoform): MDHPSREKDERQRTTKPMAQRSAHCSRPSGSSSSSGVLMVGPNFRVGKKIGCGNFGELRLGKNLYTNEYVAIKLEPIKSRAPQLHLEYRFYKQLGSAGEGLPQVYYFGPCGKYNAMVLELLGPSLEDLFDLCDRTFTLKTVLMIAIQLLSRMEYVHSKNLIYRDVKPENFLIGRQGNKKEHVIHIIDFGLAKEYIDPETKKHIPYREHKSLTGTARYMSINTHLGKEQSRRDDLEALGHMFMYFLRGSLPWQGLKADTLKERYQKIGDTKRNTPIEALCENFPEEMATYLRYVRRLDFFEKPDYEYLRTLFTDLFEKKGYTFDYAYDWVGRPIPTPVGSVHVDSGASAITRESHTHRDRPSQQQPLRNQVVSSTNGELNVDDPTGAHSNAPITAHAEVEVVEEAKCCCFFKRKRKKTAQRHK

[8] = biological target: Dual specificity tyrosine-phosphorylation-regulated kinase 1A (Homo sapiens) (UniProt Q13627); test: Inhibition of human recombinant full length GST-tagged DYRK1A expressed in baculovirus infected cells at 0.1 uM incubated for 60 mins by TR-FRET based LanthaScreen Eu kinase binding assay relative to control
[9] = biological target: Mitogen-activated protein kinase 8 (Homo sapiens, UniProt P45983); test: Inhibition of human recombinant His-tagged JNK1 expressed in baculovirus expression system at 0.1 uM incubated for 60 mins by TR-FRET based LanthaScreen Eu kinase binding assay relative to control
Mitogen-activated protein kinase 8, sequence (P45983 whole entry): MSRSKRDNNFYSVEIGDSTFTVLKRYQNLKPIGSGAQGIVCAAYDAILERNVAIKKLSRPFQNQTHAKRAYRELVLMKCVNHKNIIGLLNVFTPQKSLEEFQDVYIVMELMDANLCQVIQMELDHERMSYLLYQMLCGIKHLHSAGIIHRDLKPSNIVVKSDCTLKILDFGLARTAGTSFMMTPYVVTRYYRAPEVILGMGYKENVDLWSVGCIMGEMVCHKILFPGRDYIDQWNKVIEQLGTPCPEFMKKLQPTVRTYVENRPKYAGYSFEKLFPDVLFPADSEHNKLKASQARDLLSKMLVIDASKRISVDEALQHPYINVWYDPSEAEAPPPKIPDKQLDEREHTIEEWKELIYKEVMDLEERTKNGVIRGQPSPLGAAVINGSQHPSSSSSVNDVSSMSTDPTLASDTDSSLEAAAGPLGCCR

[10] = biological target: Glycogen synthase kinase-3 beta (Homo sapiens, UniProt P49841); test: Inhibition of GSK3beta (unknown origin) at 0.1 uM incubated for 60 mins by TR-FRET based LanthaScreen Eu kinase binding assay relative to control
Glycogen synthase kinase-3 beta, sequence (P49841 whole entry, looked up): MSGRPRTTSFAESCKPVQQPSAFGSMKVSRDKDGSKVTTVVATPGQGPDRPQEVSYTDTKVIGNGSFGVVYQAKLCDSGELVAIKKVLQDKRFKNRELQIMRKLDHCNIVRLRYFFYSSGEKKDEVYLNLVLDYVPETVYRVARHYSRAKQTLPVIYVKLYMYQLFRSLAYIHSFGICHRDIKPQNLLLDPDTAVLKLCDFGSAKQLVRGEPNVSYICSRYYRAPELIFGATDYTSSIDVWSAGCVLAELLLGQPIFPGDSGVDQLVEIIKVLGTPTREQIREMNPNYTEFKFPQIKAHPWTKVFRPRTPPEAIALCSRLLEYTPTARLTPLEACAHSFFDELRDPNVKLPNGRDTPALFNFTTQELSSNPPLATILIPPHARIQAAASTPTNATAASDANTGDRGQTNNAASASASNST

[11] = biological target: T1, Dual specificity tyrosine-phosphorylation-regulated kinase 2 (Homo sapiens) (UniProt Q92630); test: Inhibition of human recombinant full length N-terminal GST-tagged DYRK2 expressed in Escherichia coli at 0.1 uM incubated for 60 mins by TR-FRET based LanthaScreen Eu kinase binding assay relative to control
T1 sequence (whole entry): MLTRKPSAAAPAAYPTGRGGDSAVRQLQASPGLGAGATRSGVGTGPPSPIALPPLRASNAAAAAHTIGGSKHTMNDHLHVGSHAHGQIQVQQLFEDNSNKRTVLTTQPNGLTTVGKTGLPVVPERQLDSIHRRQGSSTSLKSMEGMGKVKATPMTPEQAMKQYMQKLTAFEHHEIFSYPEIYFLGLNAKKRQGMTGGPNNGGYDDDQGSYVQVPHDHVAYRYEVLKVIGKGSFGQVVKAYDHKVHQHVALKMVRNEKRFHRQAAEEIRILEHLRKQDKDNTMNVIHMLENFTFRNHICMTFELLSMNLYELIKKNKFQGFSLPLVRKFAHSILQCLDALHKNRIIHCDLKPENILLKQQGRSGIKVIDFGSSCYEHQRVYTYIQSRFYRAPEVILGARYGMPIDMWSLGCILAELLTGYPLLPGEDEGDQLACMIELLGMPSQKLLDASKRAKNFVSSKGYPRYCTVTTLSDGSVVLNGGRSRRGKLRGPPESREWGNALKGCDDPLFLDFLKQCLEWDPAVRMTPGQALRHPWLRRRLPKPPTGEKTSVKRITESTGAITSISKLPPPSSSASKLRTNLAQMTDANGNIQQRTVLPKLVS

[12] = biological target: Mitogen-activated protein kinase kinase kinase 9 (Homo sapiens) (UniProt P80192); test: Inhibition of human recombinant MAP3K9 using casein as substrate at 1 uM incubated for 40 mins in presence of [gamma32P]-ATP by scintillation counting method relative to control
Mitogen-activated protein kinase kinase kinase 9 (Homo sapiens), sequence (P80192 whole entry, looked up): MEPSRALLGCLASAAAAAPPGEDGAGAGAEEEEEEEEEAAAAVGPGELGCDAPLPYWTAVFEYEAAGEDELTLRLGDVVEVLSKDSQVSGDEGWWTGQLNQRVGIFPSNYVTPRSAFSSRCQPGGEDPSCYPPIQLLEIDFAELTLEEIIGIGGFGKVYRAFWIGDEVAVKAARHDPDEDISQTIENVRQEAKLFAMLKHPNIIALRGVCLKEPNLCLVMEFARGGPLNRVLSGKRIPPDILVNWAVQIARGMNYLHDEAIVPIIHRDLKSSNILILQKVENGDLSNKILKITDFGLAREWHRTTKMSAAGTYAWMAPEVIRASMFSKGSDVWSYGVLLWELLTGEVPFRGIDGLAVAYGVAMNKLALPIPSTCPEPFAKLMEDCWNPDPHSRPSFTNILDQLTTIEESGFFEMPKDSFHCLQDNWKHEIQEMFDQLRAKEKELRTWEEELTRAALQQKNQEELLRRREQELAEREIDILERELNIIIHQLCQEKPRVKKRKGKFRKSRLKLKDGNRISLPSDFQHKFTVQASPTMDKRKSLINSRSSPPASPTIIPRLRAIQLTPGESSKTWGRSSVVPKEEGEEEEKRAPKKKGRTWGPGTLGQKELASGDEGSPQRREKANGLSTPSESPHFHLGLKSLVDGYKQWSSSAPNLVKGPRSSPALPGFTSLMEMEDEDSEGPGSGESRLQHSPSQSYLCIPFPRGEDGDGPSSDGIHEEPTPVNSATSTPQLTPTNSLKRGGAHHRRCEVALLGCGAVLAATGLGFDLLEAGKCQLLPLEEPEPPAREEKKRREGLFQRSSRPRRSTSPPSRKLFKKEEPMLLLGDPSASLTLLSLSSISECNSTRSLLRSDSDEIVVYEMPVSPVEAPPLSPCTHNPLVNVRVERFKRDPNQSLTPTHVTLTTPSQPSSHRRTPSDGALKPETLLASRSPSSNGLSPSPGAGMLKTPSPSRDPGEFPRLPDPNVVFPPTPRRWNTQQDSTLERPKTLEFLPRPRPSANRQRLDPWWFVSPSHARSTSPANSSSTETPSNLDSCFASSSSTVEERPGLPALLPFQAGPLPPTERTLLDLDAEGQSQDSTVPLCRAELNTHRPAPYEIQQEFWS

[13] = biological target: Insulin receptor (Homo sapiens) (UniProt P06213); test: Inhibition of human recombinant INSR using KKKSPGEYVNIEF as substrate at 1 uM incubated for 40 mins in presence of [gamma32P]-ATP by scintillation counting method relative to control
Insulin receptor (Homo sapiens), sequence (P06213 28-758 limits assumed): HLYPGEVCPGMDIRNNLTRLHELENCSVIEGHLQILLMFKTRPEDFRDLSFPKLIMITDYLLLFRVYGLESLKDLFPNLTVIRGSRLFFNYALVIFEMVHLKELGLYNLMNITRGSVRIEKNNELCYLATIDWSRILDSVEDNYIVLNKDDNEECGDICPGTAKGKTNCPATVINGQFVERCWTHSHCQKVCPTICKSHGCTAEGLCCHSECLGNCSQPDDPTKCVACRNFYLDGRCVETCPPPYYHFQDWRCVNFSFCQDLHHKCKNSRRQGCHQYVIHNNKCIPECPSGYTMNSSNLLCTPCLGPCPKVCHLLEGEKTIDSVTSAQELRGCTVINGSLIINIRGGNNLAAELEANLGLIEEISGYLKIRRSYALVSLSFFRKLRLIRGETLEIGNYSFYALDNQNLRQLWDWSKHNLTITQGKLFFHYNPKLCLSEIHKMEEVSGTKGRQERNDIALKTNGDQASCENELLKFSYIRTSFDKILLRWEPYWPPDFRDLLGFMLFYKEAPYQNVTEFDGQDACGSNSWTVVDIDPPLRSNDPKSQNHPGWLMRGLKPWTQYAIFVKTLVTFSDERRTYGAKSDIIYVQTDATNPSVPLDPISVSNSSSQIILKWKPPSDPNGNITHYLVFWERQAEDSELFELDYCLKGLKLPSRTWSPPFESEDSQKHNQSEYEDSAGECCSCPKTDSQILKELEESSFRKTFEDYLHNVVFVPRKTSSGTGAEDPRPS
Insulin receptor (Homo sapiens), sequence (P06213 763-1382 limits assumed): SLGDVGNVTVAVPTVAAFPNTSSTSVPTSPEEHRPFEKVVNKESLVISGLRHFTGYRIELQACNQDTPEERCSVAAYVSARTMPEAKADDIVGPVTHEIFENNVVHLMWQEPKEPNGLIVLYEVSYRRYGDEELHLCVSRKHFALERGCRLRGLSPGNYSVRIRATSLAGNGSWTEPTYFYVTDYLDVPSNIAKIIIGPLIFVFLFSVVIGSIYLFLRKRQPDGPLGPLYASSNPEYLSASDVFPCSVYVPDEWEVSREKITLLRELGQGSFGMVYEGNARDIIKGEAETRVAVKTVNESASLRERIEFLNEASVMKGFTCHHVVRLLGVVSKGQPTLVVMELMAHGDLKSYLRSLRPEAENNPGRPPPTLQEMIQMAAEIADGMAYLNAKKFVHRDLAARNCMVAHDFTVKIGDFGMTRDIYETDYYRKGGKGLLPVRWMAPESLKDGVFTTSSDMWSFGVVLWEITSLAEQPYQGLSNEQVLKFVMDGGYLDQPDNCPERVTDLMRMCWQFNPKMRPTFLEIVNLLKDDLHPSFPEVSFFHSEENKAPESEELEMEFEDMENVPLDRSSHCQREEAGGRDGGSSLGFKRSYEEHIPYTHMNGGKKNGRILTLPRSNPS

Homo sapiens [14] = species on record: Homo sapiens; test: Selectivity ratio of IC50 for human recombinant N-terminal GST-TEV tagged CDK12 (696 to 1082 residues)/full length human CyclinK expressed in baculovirus expression system to IC50 for Inhibition of recombinant full length human N-terminal GST-fused CDK9 (1 to 372 residues)/His-tagged CyclinT1 (1 to 726 residues) expressed in baculovirus infected insect cells
Homo sapiens [15] = species on record: Homo sapiens; test: Selectivity ratio of IC50 for recombinant full length human CDK7/cyclinH1/MAT1 expressed in insect cells to IC50 for Inhibition of recombinant full length human N-terminal GST-fused CDK9 (1 to 372 residues)/His-tagged CyclinT1 (1 to 726 residues) expressed in baculovirus infected insect cells
Homo sapiens [16] = species on record: Homo sapiens; test: Selectivity ratio of IC50 for CDK3 (unknown origin) in presence of 5 mM ATP to IC50 for Inhibition of recombinant full length human N-terminal GST-fused CDK9 (1 to 372 residues)/His-tagged CyclinT1 (1 to 726 residues) expressed in baculovirus infected insect cells
[17] = Drug metabolism in human liver microsomes assessed as (1S,3R)-3-acetamido-N-(5-fluoro-4-(6-hydroxy-5,5-dimethyl-5,6-dihydro-4H-pyrrolo[1,2-b]pyrazol-3-yl)pyridin-2-yl)cyclohexanecarboxamide formation at 10 uM measured after 1 hr in presence of NADPH by LC-UV-MS analysis; assay type: ADME, Microsome
[18] = Drug metabolism in human hepatocytes assessed as (1S,3R)-3-acetamido-N-(5-fluoro-4-(6-hydroxy-5,5-dimethyl-5,6-dihydro-4H-pyrrolo[1,2-b]pyrazol-3-yl)pyridin-2-yl)cyclohexanecarboxamide metabolite formation; assay type: ADME, cell-based, Hepatocyte
[19] = Volume of distribution at steady state in Beagle dog at […], iv administered over 0.25 hrs formulated as solution in DMSO/Captisol; assay type: ADME, organism-based, Canis lupus familiaris; details: in vivo, dose 0.24 µmol/kg, read-out: Vdss
CDK9/cyclin T1 = CDK9/cyclin T1 (Homo sapiens, UniProt O60563+P50750); test: Binding affinity to human CDK9/CyclinT assessed as dissociation rate constant by surface plasmon resonance analysis; assay type: protein-complex assay
CDK9/cyclin T1, sequence (O60563 whole entry): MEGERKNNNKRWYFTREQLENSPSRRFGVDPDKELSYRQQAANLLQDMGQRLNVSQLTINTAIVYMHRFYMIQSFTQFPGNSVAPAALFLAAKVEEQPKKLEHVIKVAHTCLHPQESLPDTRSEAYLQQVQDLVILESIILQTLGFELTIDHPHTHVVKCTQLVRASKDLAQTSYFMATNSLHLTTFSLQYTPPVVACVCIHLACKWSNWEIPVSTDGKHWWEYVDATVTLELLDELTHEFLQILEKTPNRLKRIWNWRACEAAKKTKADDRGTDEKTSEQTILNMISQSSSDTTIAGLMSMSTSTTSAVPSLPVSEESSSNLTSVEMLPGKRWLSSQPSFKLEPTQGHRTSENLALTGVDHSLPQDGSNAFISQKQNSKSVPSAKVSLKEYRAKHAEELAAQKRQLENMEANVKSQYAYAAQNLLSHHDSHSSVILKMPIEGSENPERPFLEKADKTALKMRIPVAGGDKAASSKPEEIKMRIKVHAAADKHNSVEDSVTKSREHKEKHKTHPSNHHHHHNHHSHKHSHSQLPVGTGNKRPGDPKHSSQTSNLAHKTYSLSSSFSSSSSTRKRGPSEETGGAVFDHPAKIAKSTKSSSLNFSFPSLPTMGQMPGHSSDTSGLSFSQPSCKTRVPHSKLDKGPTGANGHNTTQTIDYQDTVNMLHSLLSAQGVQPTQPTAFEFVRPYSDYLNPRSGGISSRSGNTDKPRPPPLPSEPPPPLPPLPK
CDK9/cyclin T1, sequence (P50750 whole entry): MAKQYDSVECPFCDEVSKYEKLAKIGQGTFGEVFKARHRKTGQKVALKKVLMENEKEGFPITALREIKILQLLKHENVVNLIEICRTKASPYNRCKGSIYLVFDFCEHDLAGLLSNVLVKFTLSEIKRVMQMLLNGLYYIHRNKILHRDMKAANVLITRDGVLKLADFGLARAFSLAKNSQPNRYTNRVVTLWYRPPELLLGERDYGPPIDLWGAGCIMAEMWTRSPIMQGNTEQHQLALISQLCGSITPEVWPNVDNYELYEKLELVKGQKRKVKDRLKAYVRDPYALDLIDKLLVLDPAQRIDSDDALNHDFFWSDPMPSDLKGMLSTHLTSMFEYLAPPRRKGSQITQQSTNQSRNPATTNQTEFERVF

[20] = biological target: Cyclin-dependent kinase 9 (Homo sapiens, UniProt P50750); test: Inhibition of CDK9 in human MV4-11 cells assessed as induction of caspase-3/7 activation measured after 6 hrs followed by Caspase-glo reagent based assay; assay type: cell-based
Cyclin-dependent kinase 9, sequence (P50750 whole entry): as above

Question: What does the source list for `CC(=O)N[C@@H]1CCC[C@H](C(=O)Nc2cc(-c3cnn4c3CCCC4)c(Cl)cn2)C1`?
Answer: Drug metabolism [1]: Metabolite_Detected; Drug metabolism [2]: Metabolite_Detected; half-life [3]: 30 min

Question: For `CC(=O)N[C@@H]1CCC[C@H](C(=O)Nc2cc(-c3cnn4c3CC(C)(C)C4)c(Cl)cn2)C1` [ZEMIRCICLIB], which Activity (NOMO-1) is on record?
Answer: Active

Question: And the Drug metabolism [4]?
Answer: Metabolite_Detected

Question: And the half-life [5]?
Answer: 53.4 min

Question: And the half-life [6]?
Answer: 10.8 min

Question: What about the IC50 [7] of the same compound?
Answer: 5.52 µM

Question: What about the inhibition [8] of the same compound?
Answer: 80%

Question: And the inhibition [9]?
Answer: 84%

Question: What about the inhibition [10] of the same compound?
Answer: 100%

Question: What about the inhibition [11] of the same compound?
Answer: 85%

Question: And the inhibition [12]?
Answer: 82%

Question: And the inhibition [13]?
Answer: 83%

Question: For `CC(=O)N[C@@H]1CCC[C@H](C(=O)Nc2cc(-c3cnn4c3CC(C)(C)C4)c(F)cn2)C1`, which Ratio IC50 (Homo sapiens [14]) is on record?
Answer: 16

Question: And the Ratio IC50 (Homo sapiens [15])?
Answer: 16

Question: What about the Ratio IC50 (Homo sapiens [16]) of the same compound?
Answer: 5

Question: And the Drug metabolism [17]?
Answer: Metabolite_Detected

Question: What about the Drug metabolism [18] of the same compound?
Answer: Metabolite_Detected

Question: And the Vd at 0.25 h [19]?
Answer: 1.2 L/kg

Question: What about the koff (CDK9/cyclin T1) of the same compound?
Answer: 569 10^-6/s

Question: What about the EC50 [20] of the same compound?
Answer: 0.029 µM
